Conditions: Liquid, Vibrating tube method

Cc1cccc(O)c1 [3-methylphenol]
Conditions	mass density [kg/m3]
332.61 K, 24000 kPa	1016.6
332.61 K, 25008 kPa	1017.1
342.27 K, 2018 kPa	995.8
342.27 K, 2999 kPa	996.4
342.27 K, 3998 kPa	997
342.27 K, 4976 kPa	997.6
342.27 K, 5984 kPa	998.3
342.27 K, 7059 kPa	998.9
342.27 K, 8070 kPa	999.7
342.27 K, 8967 kPa	1000.2
342.27 K, 9994 kPa	1000.8
342.27 K, 10921 kPa	1001.4
342.27 K, 11964 kPa	1002.1
342.27 K, 12971 kPa	1002.6
342.27 K, 13954 kPa	1003.2
342.27 K, 14960 kPa	1004
342.27 K, 15941 kPa	1004.3
342.27 K, 16963 kPa	1005.1
342.27 K, 17992 kPa	1005.8
342.27 K, 18963 kPa	1006.2
342.27 K, 19996 kPa	1006.7
342.27 K, 21003 kPa	1007.5
342.27 K, 21974 kPa	1008
342.27 K, 22968 kPa	1008.7
342.27 K, 24051 kPa	1009.2
342.27 K, 24971 kPa	1009.7
352.06 K, 1951 kPa	988.5
352.06 K, 2979 kPa	989.1
352.06 K, 4034 kPa	989.8
352.06 K, 4966 kPa	990.3
352.06 K, 5929 kPa	990.9
352.06 K, 7014 kPa	991.6
352.06 K, 8011 kPa	992.2
352.06 K, 8921 kPa	992.8
352.06 K, 9982 kPa	993.4
352.06 K, 10938 kPa	994
352.06 K, 11975 kPa	994.6
352.06 K, 12999 kPa	995.3
352.06 K, 13907 kPa	995.8
352.06 K, 14981 kPa	996.5
352.06 K, 15966 kPa	997.1
352.06 K, 16996 kPa	997.7
352.06 K, 17984 kPa	998.3
352.06 K, 18991 kPa	998.9
352.06 K, 20005 kPa	999.5
352.06 K, 21038 kPa	1000.1
352.06 K, 22019 kPa	1000.6
352.06 K, 23001 kPa	1001.2
352.06 K, 24029 kPa	1001.8
352.06 K, 24969 kPa	1002.3
361.9 K, 1990 kPa	980.5
361.9 K, 3001 kPa	981.2
361.9 K, 4024 kPa	981.8
361.9 K, 5019 kPa	982.5
361.9 K, 6014 kPa	983.1
361.9 K, 7025 kPa	983.7
361.9 K, 8019 kPa	984.4
361.9 K, 9010 kPa	985
361.9 K, 9978 kPa	985.6
361.9 K, 11019 kPa	986.3
361.9 K, 12038 kPa	986.9
361.9 K, 13020 kPa	987.6
361.9 K, 14021 kPa	988.2
361.9 K, 15006 kPa	988.8
361.9 K, 15970 kPa	989.4
361.9 K, 16988 kPa	990.1
361.9 K, 17991 kPa	990.7
361.9 K, 19016 kPa	991.4
361.9 K, 20042 kPa	992
361.9 K, 20983 kPa	992.6
361.9 K, 22034 kPa	993.3
361.9 K, 23021 kPa	993.9
361.9 K, 24011 kPa	994.6
361.9 K, 24912 kPa	995.1

From the NIST ThermoML archive (doi:10.1021/je400055v)
